Laboratory results: PMC11672653 (Antibiotics, 2024)

Assays:
[1] = test system: polyclonal antibodies against ERM (anti-ERM antibody); experiment: Competitive indirect ELISA with anti-eremomycin antibody and heterologous VCM coating conjugates; assay type: binding, rabbit; details: for IC50: cross-reactivity study, eremomycin antibody-based ELISA for vancomycin (coating BSA-VCM×50f); for CR (cross-reactivity): relative to vancomycin = 100%, eremomycin antibody-based ELISA (coating BSA-VCM×50f)
Procedure: The coating conjugates were adsorbed in 96-well plates from solutions (0.05–1.5 µg/mL) in 0.1 mL CBB. After overnight incubation at 4 °C, the plates were washed three times with PBST to remove unbound reagent. Serial dilutions of antibodies in 0.1 mL 1% BSA-PBST were combined with standard (0, 0.01–10,000 ng/mL) in 0.1 mL PBST and incubated for 1 h at 25 °C. Following the washing procedure, the bound antibody was then detected using the GAR-HRP (1 h, 37 °C) in 0.1 mL of 1% BSA-PBS and subsequently washed out. The enzymatic activity was determined by the addition of TMB substrate (0.1 mL) to the wells, followed by the addition of 0.1 mL of 1 M sulfuric acid 30 min later, which terminated the reaction. The absorbance of the colored reaction product was read at 450 nm using a LisaScan spectrophotometer (Erba Mannheim, Karásek, Czech Republic).
The maximum optical output signal (100%) at zero concentration of VCM was referred to as B0. The decrease in the signal caused by each antibiotic concentration was expressed as the B/B0 ratio and was used to construct standard curves using a four-parameter logistic fitting in GraphPad Prism 8.0 software. The VCM half-inhibitory concentration (IC50) served as the sensitivity value for the comparison of assay variants and the cross-reactivity of analogs.
The checkerboard titration was employed to identify the optimal ratio of coating antigen to antibody, with concentrations taken in a serial fashion.

[2] = cited from earlier work
[3] = HPLC-MS/MS re-analysis of frozen VCM-spiked human serum (accuracy, stability); details: one week, several freeze/thaw cycles
Procedure: The same samples spiked with VCM were frozen and analyzed by HPLC-MS/MS one week later.
Frozen serum samples were thawed prior to analysis and assayed for VCM concentration by ELISA and LC-MS/MS in parallel. The procedure and sample preparation for LC-MS/MS analysis are detailed in the Supplementary File.
An aliquot (10 μL) of the analyte working solution and an aliquot (10 μL) of the IS working solution (1000 ng/ml) were added to an aliquot (100 μL) of serum. After vortexing the sample, 400 μL of cooled (4 °C) water contacting 15% trifluoroacetic acid was added for precipitation, and the sample was mixed well and centrifuged (2750 × g, 15 min, 4 °C). An aliquot (20 μL) of the supernatant was transferred to a test plate containing 230 μL ACN/H2O (10/90) solution for further UPLC-MS/MS analysis (Table S2). Calibration was constructed as a function of VCM concentrations versus corresponding peak area values (Figure S2).
Table S2. Calibration of spiked human serum samples using HPLC-MS/MS (n=4) […]
Figure S2. Calibration of spiked human serum samples using HPLC-MS/MS
Table S3. Recovery from spiked human serum samples using HPLC-MS/MS (N=6) […]
(1 picture or pasted object on this page, not shown here)

Row | Compound | IC50 [1] | CR (cross-reactivity) [1] [%] | CR (cross-reactivity) ([1]; listed as teicoplanin) [%] | recommended Ctrough range [2] [mg/L] | stability in human serum [3]
1 | Teicoplanin | >10,000 ng/mL | <0.3 | < 0.3 |  | 
2 | Polymyxin B | >10,000 ng/mL | <0.3 |  |  | 
3 | NCC[C@H](O)C(=O)N[C@@H]1C[C@H](N)[C@@H](O[C@H]2O[C@H](CN)[C@@H](O)[C@H](O)[C@H]2O)[C@H](O)[C@H]1O[C@H]1O[C@H](CO)[C@@H](O)[C@H](N)[C@H]1O [Amikacin] | >10,000 ng/mL | <0.3 |  |  | 
4 | CC(=O)NC[C@H]1CN(c2ccc(N3CCOCC3)c(F)c2)C(=O)O1 [Linezolid] | >10,000 ng/mL | <0.3 |  |  | 
5 | Eremomycin | 33.0 ng/mL | 104 |  |  | 
6 | C[C@@H](O)[C@H]1C(=O)N2C(C(=O)O)=C(S[C@@H]3CN[C@H](C(=O)N(C)C)C3)[C@H](C)[C@H]12 [Meropenem] | >10,000 ng/mL | <0.3 |  |  | 
7 | CN[C@H](CC(C)C)C(=O)N[C@H]1C(=O)N[C@@H](CC(N)=O)C(=O)N[C@H]2C(=O)N[C@H]3C(=O)N[C@H](C(=O)N[C@H](C(=O)O)c4cc(O)cc(O)c4-c4cc3ccc4O)[C@H](O)c3ccc(c(Cl)c3)Oc3cc2cc(c3O[C@@H]2O[C@H](CO)[C@@H](O)[C@H](O)[C@H]2O[C@H]2C[C@](C)(N)[C@H](O)[C@H](C)O2)Oc2ccc(cc2Cl)[C@H]1O [Vancomycin] |  |  |  | 15 to 20 | stability of the analyte in human serum
8 | CNC(C)C1CCC(N)C(OC2C(N)CC(N)C(OC3OCC(C)(O)C(NC)C3O)C2O)O1 (centres unmarked) [Gentamicin] | >10,000 ng/mL | <0.3 |  |  | 
9 | CC[C@H]1OC(=O)[C@H](C)[C@@H](O[C@H]2C[C@@](C)(OC)[C@@H](O)[C@H](C)O2)[C@H](C)[C@@H](O[C@@H]2O[C@H](C)C[C@H](N(C)C)[C@H]2O)[C@](C)(O)C[C@@H](C)CN(C)[C@H](C)[C@@H](O)[C@]1(C)O [Azithromycin] | >10,000 ng/mL | <0.3 |  |  | 
10 | Colistin | >10,000 ng/mL | <0.3 |  |  | 
11 | CN(C)c1cc(NC(=O)CNC(C)(C)C)c(O)c2c1C[C@H]1C[C@H]3[C@H](N(C)C)C(O)=C(C(N)=O)C(=O)[C@@]3(O)C(O)=C1C2=O [Tigecycline] | >10,000 ng/mL | <0.3 |  |  | 
